From the supplement of paper PMC11451515

Experiments:
Conditions in all cases: 48 h
NOMO1 [1] = test: AUC of viability dose-response curve (% viability x log10 dose units); higher = less sensitive
Outline: (§1)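 In 1536-well plates, leukemia cells adapted to each medium (500 or 1000 cells/well) were exposed for 48 h at 37°C to library compounds in DMSO across 11 threefold doses, 47 μM down to 0.79 nM. Viability was read by CellTiter-Glo One luminescence and normalised per plate to DMSO and cell-free wells. A four-parameter log-logistic fit over log10 doses was integrated by trapezoidal rule. This yielded the area under the curve, with over-full-viability curves scaled and quality-control failures dropped.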

P12-Ichikawa [2] = test: as above
Outline: as §1

SEM cells [3] = test: as above
Outline: as §1

NOMO1 [4] = test: cell viability relative to DMSO control; higher = less cytotoxic
Outline: (§2)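 Cells were incubated for 48 h at 37°C before CellTiter-Glo One luminescence was read. The cells were NOMO1 or SEM (500 cells/well) or P12-Ichikawa (1000 cells/well) leukemia cells, adapted for at least four passages in each medium and seeded in 1536-well plates (5 μl). Dosing used library compounds in DMSO applied by pin over 11 threefold points, 47 μM to 0.79 nM. Viability is the per-plate percentage of DMSO wells, with cell-free wells as background.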

P12-Ichikawa [5] = test: as above
Outline: as §2

SEM cells [6] = test: as above
Outline: as §2

NC(=O)c1cnc(N[C@@H]2CCCC[C@@H]2N)nc1Nc1cccc(-n2nccn2)c1
AUC of viability dose-response curve
Conditions | NOMO1 [1] | P12-Ichikawa [2] | SEM cells [3]
HPLM + 10% dialyzed FBS | 457 | 468 | 419
RPMI 5 mM glucose + 10% FBS | 457 | 462 | 420
RPMI 5 mM glucose + 10% dialyzed FBS | 453 | 471 | 428

cell viability [%]
Conditions | NOMO1 [4] | P12-Ichikawa [5] | SEM cells [6]
HPLM + 10% dialyzed FBS, 0.000781 µM | 118 | 111 | 105
HPLM + 10% dialyzed FBS, 0.00234 µM | 120 | 117 | 103
HPLM + 10% dialyzed FBS, 0.00702 µM | 123 | 126 | 112
HPLM + 10% dialyzed FBS, 0.0211 µM | 153 | 124 | 111
HPLM + 10% dialyzed FBS, 0.0632 µM | 140 | 122 | 130
HPLM + 10% dialyzed FBS, 0.19 µM | 141 | 132 | 120
HPLM + 10% dialyzed FBS, 0.569 µM | 154 | 136 | 110
HPLM + 10% dialyzed FBS, 1.71 µM | 116 | 128 | 123
HPLM + 10% dialyzed FBS, 5.12 µM | 138 | 123 | 96.5
HPLM + 10% dialyzed FBS, 15.4 µM | 110 | 133 | 44.3
HPLM + 10% dialyzed FBS, 46.1 µM | 75 | 77.6 | 11.6
RPMI 5 mM glucose + 10% FBS, 0.000781 µM | – | – | 84.8
RPMI 5 mM glucose + 10% FBS, 0.00234 µM | – | – | 101
RPMI 5 mM glucose + 10% FBS, 0.00702 µM | – | – | 125
RPMI 5 mM glucose + 10% FBS, 0.0211 µM | – | – | 135
RPMI 5 mM glucose + 10% FBS, 0.0632 µM | – | – | 142
RPMI 5 mM glucose + 10% FBS, 0.19 µM | – | – | 103
RPMI 5 mM glucose + 10% FBS, 0.569 µM | – | – | 125
RPMI 5 mM glucose + 10% FBS, 1.71 µM | – | – | 123
RPMI 5 mM glucose + 10% FBS, 5.12 µM | – | – | 107
RPMI 5 mM glucose + 10% FBS, 15.4 µM | – | – | 40.3
RPMI 5 mM glucose + 10% FBS, 46.1 µM | – | – | 10.7
RPMI 5 mM glucose + 10% dialyzed FBS, 0.000781 µM | – | – | 122
RPMI 5 mM glucose + 10% dialyzed FBS, 0.00234 µM | – | – | 120
RPMI 5 mM glucose + 10% dialyzed FBS, 0.00702 µM | – | – | 122
RPMI 5 mM glucose + 10% dialyzed FBS, 0.0211 µM | – | – | 146
RPMI 5 mM glucose + 10% dialyzed FBS, 0.0632 µM | – | – | 162
RPMI 5 mM glucose + 10% dialyzed FBS, 0.19 µM | – | – | 131
RPMI 5 mM glucose + 10% dialyzed FBS, 0.569 µM | – | – | 148
RPMI 5 mM glucose + 10% dialyzed FBS, 1.71 µM | – | – | 129
RPMI 5 mM glucose + 10% dialyzed FBS, 5.12 µM | – | – | 124
RPMI 5 mM glucose + 10% dialyzed FBS, 15.4 µM | – | – | 58.3
RPMI 5 mM glucose + 10% dialyzed FBS, 46.1 µM | – | – | 34.4

COc1c(C)cnc(Cn2cnc3c(Cl)nc(N)nc32)c1C
AUC of viability dose-response curve
Conditions | NOMO1 [1] | P12-Ichikawa [2] | SEM cells [3]
HPLM + 10% dialyzed FBS | 322 | 376 | 306
RPMI 5 mM glucose + 10% FBS | 324 | 334 | 293
RPMI 5 mM glucose + 10% dialyzed FBS | 323 | 340 | 306

cell viability [%]
Conditions | NOMO1 [4] | P12-Ichikawa [5] | SEM cells [6]
HPLM + 10% dialyzed FBS, 0.000781 µM | 108 | 109 | 94.1
HPLM + 10% dialyzed FBS, 0.00234 µM | 112 | 114 | 106
HPLM + 10% dialyzed FBS, 0.00702 µM | 138 | 106 | 103
HPLM + 10% dialyzed FBS, 0.0211 µM | 120 | 125 | 112
HPLM + 10% dialyzed FBS, 0.0632 µM | 151 | 118 | 102
HPLM + 10% dialyzed FBS, 0.19 µM | 129 | 104 | 76.9
HPLM + 10% dialyzed FBS, 0.569 µM | 80.8 | 85.1 | 52.8
HPLM + 10% dialyzed FBS, 1.71 µM | 36.7 | 67.9 | 28.3
HPLM + 10% dialyzed FBS, 5.12 µM | 19.8 | 55.1 | 15.9
HPLM + 10% dialyzed FBS, 15.4 µM | 18.2 | 50.2 | 22.3
HPLM + 10% dialyzed FBS, 46.1 µM | 14.3 | 50.5 | 17.6
RPMI 5 mM glucose + 10% FBS, 0.000781 µM | 117 | 116 | 108
RPMI 5 mM glucose + 10% FBS, 0.00234 µM | 112 | 123 | 125
RPMI 5 mM glucose + 10% FBS, 0.00702 µM | 115 | 125 | 99.6
RPMI 5 mM glucose + 10% FBS, 0.0211 µM | 139 | 125 | 115
RPMI 5 mM glucose + 10% FBS, 0.0632 µM | 129 | 124 | 100
RPMI 5 mM glucose + 10% FBS, 0.19 µM | 119 | 94.1 | 77.3
RPMI 5 mM glucose + 10% FBS, 0.569 µM | 91.7 | 61.6 | 50
RPMI 5 mM glucose + 10% FBS, 1.71 µM | 26.5 | 50.5 | 25.5
RPMI 5 mM glucose + 10% FBS, 5.12 µM | 18.6 | 48 | 16.1
RPMI 5 mM glucose + 10% FBS, 15.4 µM | 14.3 | 40.9 | 22.9
RPMI 5 mM glucose + 10% FBS, 46.1 µM | 15.7 | 38.1 | 17.3
RPMI 5 mM glucose + 10% dialyzed FBS, 0.000781 µM | 119 | 110 | 115
RPMI 5 mM glucose + 10% dialyzed FBS, 0.00234 µM | 122 | 121 | 104
RPMI 5 mM glucose + 10% dialyzed FBS, 0.00702 µM | 121 | 119 | 106
RPMI 5 mM glucose + 10% dialyzed FBS, 0.0211 µM | 132 | 116 | 116
RPMI 5 mM glucose + 10% dialyzed FBS, 0.0632 µM | 128 | 115 | 124
RPMI 5 mM glucose + 10% dialyzed FBS, 0.19 µM | 101 | 99.8 | 78.6
RPMI 5 mM glucose + 10% dialyzed FBS, 0.569 µM | 90.1 | 58.3 | 52.9
RPMI 5 mM glucose + 10% dialyzed FBS, 1.71 µM | 34.9 | 47.8 | 33.1
RPMI 5 mM glucose + 10% dialyzed FBS, 5.12 µM | 18.2 | 45.1 | 15.8
RPMI 5 mM glucose + 10% dialyzed FBS, 15.4 µM | 18 | 40.9 | 25
RPMI 5 mM glucose + 10% dialyzed FBS, 46.1 µM | 20.2 | 37.9 | 22.1
